From patent US8906911B2, “Chemokine receptor antagonists” (AbbVie Inc., priority 2012, dated 2014)
Like-named read-outs stand apart in the source and are kept apart here.

Key:
[1] = target: T1, human CCR2B (Homo sapiens (Human), UniProt P41597); test: Inhibition of [125I]-labeled MCP-1 binding to hCCR2B (radioligand binding in CHO cells)
Excerpt: (§1) CHO cells expressing human CCR2B were generated as follows. cDNA for human CCR2B (cloned from human blood) was cloned into plasmid pcDNA3.1 (from Invitrogen). The resulting plasmids were separately transfected into CHO cells expressing human Gα16 (from Molecular Devices). […] CHO cells expressing rat CCR2 were generated as follows. cDNA for rat CCR2 (cloned from rat macrophage) was cloned into plasmid pEF-flag (from Chinese Academy of Science). The resulting plasmids were transfected into CHO cells expressing human Gα16 (from […]).
Inhibition of [^125I]-Labeled MCP-1 Binding to hCCR2B
Radioligand binding assays were performed in CHO cells expressing human CCR2B and Gα16 coupling protein. All compounds were dissolved in DMSO and assays run at a final DMSO concentration of 0.5% (v/v). [^125I]-labeled human MCP-1 was purchased from PerkinElmer. Unlabelled human MCP-1 was purchased from PeproTech.
Compounds were serially diluted in DMSO before diluting into assay buffer (25 mM HEPES, pH 7.4, 5 mM MgCl2, 1 mM CaCl2, 0.5% BSA) with cryo preserved CHO cells expressing human CCR2B and the Gα16 coupling protein (30×10^3/well) and [^125I]-MCP-1 (50 pM). The reaction was incubated at room temperature for 90 minutes before transferring to GF/C filter membrane (PerkinElmer) pre-treated with 0.3% polyethyleneimine for 2 hours at 4° C. The filter membrane was washed six times with ice cold wash buffer (25 mM HEPES, pH 7.4, 5 mM MgCl2, 1 mM CaCl2, 500 mM NaCl, 0.01% (m/v) azide), dried, and sealed in a RLB sample bag (Agilent Technologies) before adding 5.0 mL Microscint 20 to each bag. Membrane was counted on Microbeta counter where background binding was determined by the presence of 100 nM MCP-1 and control total binding was determined by addition of DMSO in place of the test compound. The radioactivity values (cpm) were used to calculate the percent inhibition at a given compound concentration and the data fit to a sigmoidal curve in a semi-log plot to determine IC50 values. The corresponding Ki value is calculated as follows:
Ki=IC50/(1+[radioligand]/Kd), where [radioligand] is the concentration of the label and Kd (dissociation constant) is determined in saturation experiment with different concentrations of labeled MCP-1.

[2] = target: rat CCR2 (Rattus norvegicus (Rat), UniProt O55193); test: Inhibition of native agonist (rat MCP-1)-induced intracellular calcium release, calcium flux assay in CHO cells expressing rat CCR2 and Gα16; format: cell-based; details: read-out: rCCR2 Kb
Chain of rat CCR2 (O55193 whole entry): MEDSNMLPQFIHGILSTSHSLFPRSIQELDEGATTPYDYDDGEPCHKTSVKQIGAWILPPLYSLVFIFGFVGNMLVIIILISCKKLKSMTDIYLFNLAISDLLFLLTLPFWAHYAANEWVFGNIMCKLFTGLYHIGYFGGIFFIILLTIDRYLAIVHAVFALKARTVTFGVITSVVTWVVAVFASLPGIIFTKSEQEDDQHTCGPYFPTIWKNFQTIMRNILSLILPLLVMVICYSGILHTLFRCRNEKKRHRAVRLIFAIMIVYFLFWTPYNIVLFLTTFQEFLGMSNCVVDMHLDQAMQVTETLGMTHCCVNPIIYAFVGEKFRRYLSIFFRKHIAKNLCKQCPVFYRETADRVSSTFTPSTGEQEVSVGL
Excerpt: as §1
(§2) Inhibition of Native Agonist-Induced Intracellular Calcium Release in Cells Expressing hCCR2B or rCCR2
(§3) Calcium flux assays were performed in CHO cells expressing human CCR2B and Gα16 coupling protein, or rat CCR2 and Gα16 coupling protein. All compounds were dissolved in DMSO and assays run at a final DMSO concentration of 0.25% (v/v). Human MCP-1 was purchased from PeproTech and used at a final assay concentration of 2 nM, while rat MCP-1 was purchased from R&D and used at a final assay concentration of 4 nM. Assays with cells expressing human CCR2B were performed with human MCP-1, while assays with cells expressing rat CCR2 were performed with rat MCP-1.
(§4) Briefly, cells were cultured overnight in a microtiter plate at 8000 per well. The next day, the resultant adherent cells were incubated in assay buffer (20 mM HEPES, pH 7.4, 0.1% bovine serum albumin, and 2.5 mM probenocid in Hank's Buffered Saline Solution) containing Calcium 4 dye (Molecular Probes) at 37° C. for 60 minutes. Calcium flux assays were performed on a FLIPR^Tetra instrument (Molecular Devices) by adding compound to the cells followed by addition of native agonist and measuring the change in fluorescence as a function of time. Maximal and minimal values for fluorescence were determined using native agonist (2 nM MCP-1) for human or rat CCR2, or buffer addition, respectively. Fluorescence values were used to calculate the percent inhibition at a given compound concentration and the data fit to a sigmoidal curve in a semi-log plot to determine IC50 values. The Kb value is calculated as Kb=IC50/(1+[agonist]/EC50), where [agonist] is the concentration of agonist used and EC50 is the agonist potency determined in the previous experiments. Mean Kb values and IC50 of the compounds assayed are reported in Table 2 and Table 3 respectively.

[3] = target: T1, human CCR2B; test: Inhibition of native agonist (human MCP-1)-induced intracellular calcium release, calcium flux assay in CHO cells expressing human CCR2B and Gα16; format: cell-based; details: for IC50: read-out: hCCR2B IC50; for Kb: read-out: hCCR2B Kb
Excerpt: as §1, §2, §3, §4

[4] = mean Ki, [125I]-MCP-1 50 pM, CHO cells expressing human CCR2B and Gα16

T1 sequence (P41597 other isoform, or with tags, fused parts or gaps): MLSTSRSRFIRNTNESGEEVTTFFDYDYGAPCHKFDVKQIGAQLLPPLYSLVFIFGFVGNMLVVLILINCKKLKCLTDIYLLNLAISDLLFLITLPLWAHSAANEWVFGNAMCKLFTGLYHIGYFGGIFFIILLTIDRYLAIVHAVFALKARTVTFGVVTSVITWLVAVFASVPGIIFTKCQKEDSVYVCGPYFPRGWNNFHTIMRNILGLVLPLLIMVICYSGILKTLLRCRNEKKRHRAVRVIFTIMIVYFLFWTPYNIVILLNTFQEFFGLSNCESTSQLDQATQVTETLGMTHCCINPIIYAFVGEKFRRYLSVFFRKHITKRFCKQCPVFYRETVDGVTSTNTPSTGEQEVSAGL

Kb [2] [nM] | IC50 ([3]; calcium flux, human MCP-1 2 nM) [nM] | Kb [3] [nM] | Ki [1, 4] [nM] | SMILES | Ki [1] [nM] | IC50 [3] [nM]
23 | 54.9 | 14 | 32 | CO[C@@H]1COCC[C@H]1N[C@@H]1C[C@H]2CCC[C@@]2(C(=O)N2C[C@@H]3C[C@H]2CN3c2cc(C(F)(F)F)ccn2)C1 [Example 1, 1,5-anhydro-2,3-dideoxy-4-O-methyl-3-{[(2R,3aR,6aR)-3a-({(1S,4S)-5-[4-(trifluoromethyl)pyridin-2-yl]-2,5-diazabicyclo[2.2.1]hept-2-yl}carbonyl)octahydropentalen-2-yl]amino}-D-threo-pentitol] |  | 
12 | 76.7 | 19 | 60 | CO[C@@H]1COCC[C@@H]1N[C@@H]1C[C@H]2CCC[C@@]2(C(=O)N2C[C@@H]3C[C@H]2CN3c2cc(C(F)(F)F)ccn2)C1 [Example 2, 1,5-anhydro-2,3-dideoxy-4-O-methyl-3-{[(2R,3aR,6aR)-3a-({(1S,4S)-5-[4-(trifluoromethyl)pyridin-2-yl]-2,5-diazabicyclo[2.2.1]hept-2-yl}carbonyl)octahydropentalen-2-yl]amino}-D-erythro-pentitol] |  | 
10 | 65.7 | 16 | 30 | CO[C@@H]1COCC[C@@H]1N(C)[C@@H]1C[C@H]2CCC[C@@]2(C(=O)N2C[C@@H]3C[C@H]2CN3c2cc(C(F)(F)F)ccn2)C1 [Example 7, 1,5-anhydro-2,3-dideoxy-4-O-methyl-3-{methyl[(2R,3aR,6aR)-3a-({(1S,4S)-5-[4-(trifluoromethyl)pyridin-2-yl]-2,5-diazabicyclo[2.2.1]hept-2-yl}carbonyl)octahydropentalen-2-yl]amino}-D-erythro-pentitol] |  | 
532 | 2200 | 542 |  | CO[C@@H]1COCC[C@@H]1N[C@@H]1C[C@H]2CCC[C@@]2(C(=O)N2C[C@@H]3C[C@H]2CN3c2cccc(C(F)(F)F)c2C#N)C1 [Example 45, 1,5-anhydro-3-{[(2R,3aR,6aR)-3a-({(1S,4S)-5-[2-cyano-3-(trifluoromethyl)phenyl]-2,5-diazabicyclo[2.2.1]hept-2-yl}carbonyl)octahydropentalen-2-yl]amino}-2,3-dideoxy-4-O-methyl-D-erythro-pentitol] |  | 
3 |  | 4 |  | CO[C@@H]1COCC[C@@H]1N[C@@H]1C[C@H]2CCC[C@@]2(C(=O)N2C[C@@H]3C[C@H]2CN3c2ccc(Cl)c(C(F)(F)F)c2)C1 [Example 46, 1,5-anhydro-3-{[(2R,3aR,6aR)-3a-({(1S,4S)-5-[4-chloro-3-(trifluoromethyl)phenyl]-2,5-diazabicyclo[2.2.1]hept-2-yl}carbonyl)octahydropentalen-2-yl]amino}-2,3-dideoxy-4-O-methyl-D-erythro-pentitol] |  | 
55 | 521 | 128 |  | CO[C@@H]1COCC[C@@H]1N(C)[C@@H]1C[C@H]2CCC[C@@]2(C(=O)N2C[C@@H]3C[C@H]2CN3c2cc(C#N)cc(C(F)(F)F)c2)C1 [Example 57, 1,5-anhydro-3-{[(2R,3aR,6aR)-3a-({(1S,4S)-5-[3-cyano-5-(trifluoromethyl)phenyl]-2,5-diazabicyclo[2.2.1]hept-2-yl}carbonyl)octahydropentalen-2-yl](methyl)amino}-2,3-dideoxy-4-O-methyl-D-erythro-pentitol] |  | 
515 | 2780 | 684 |  | CO[C@@H]1COCC[C@@H]1N(C)[C@@H]1C[C@H]2CCC[C@@]2(C(=O)N2C[C@@H]3C[C@H]2CN3c2cccc(Cl)c2C#N)C1 [Example 58, 1,5-anhydro-3-{[(2R,3aR,6aR)-3a-{[(1S,4S)-5-(3-chloro-2-cyanophenyl)-2,5-diazabicyclo[2.2.1]hept-2-yl]carbonyl}octahydropentalen-2-yl](methyl)amino}-2,3-dideoxy-4-O-methyl-D-erythro-pentitol] |  | 

SMILES | Kb [2] [nM] | IC50 ([3]; calcium flux, human MCP-1 2 nM) [nM] | Kb [3] [nM] | Ki [1, 4] [nM] | Ki [1] [nM] | IC50 [3] [nM]
CO[C@@H]1COCC[C@@H]1N[C@@H]1C[C@H]2CCC[C@@]2(C(=O)N2C[C@@H]3C[C@H]2CN3c2ccc(C#N)c(C(F)(F)F)c2)C1 (racemic) [Example 39, 1,5-anhydro-3-{[(2R,3aR,6aR)-3a-({(1S,4S)-5-[4-cyano-3-(trifluoromethyl)phenyl]-2,5-diazabicyclo[2.2.1]hept-2-yl}carbonyl)octahydropentalen-2-yl]amino}-2,3-dideoxy-4-O-methyl-D-erythro-pentitol] | 3 | 55.3 | 14 |  | 66 | 
CO[C@@H]1COCC[C@@H]1N[C@@H]1C[C@H]2CCC[C@@]2(C(=O)N2C[C@@H]3C[C@H]2CN3c2ccc(F)c(C(F)(F)F)c2)C1 [Example 15, 1,5-anhydro-2,3-dideoxy-3-{[(2R,3aR,6aR)-3a-({(1S,4S)-5-[4-fluoro-3-(trifluoromethyl)phenyl]-2,5-diazabicyclo[2.2.1]hept-2-yl}carbonyl)octahydropentalen-2-yl]amino}-4-O-methyl-D-erythro-pentitol] | 3 |  | 9 | 29 |  | 34.7
CO[C@@H]1COCC[C@@H]1N(C)[C@@H]1C[C@H]2CCC[C@@]2(C(=O)N2C[C@@H]3C[C@H]2CN3c2cccc(C(F)(F)F)c2C#N)C1 [Example 54, 1,5-anhydro-3-{[(2R,3aR,6aR)-3a-({(1S,4S)-5-[2-cyano-3-(trifluoromethyl)phenyl]-2,5-diazabicyclo[2.2.1]hept-2-yl}carbonyl)octahydropentalen-2-yl](methyl)amino}-2,3-dideoxy-4-O-methyl-D-erythro-pentitol] | 2310 |  | 682 |  |  | 2780
CO[C@@H]1COCC[C@@H]1N(C)[C@@H]1C[C@H]2CCC[C@@]2(C(=O)N2C[C@@H]3C[C@H]2CN3c2cc(C(F)(F)F)cc(C(F)(F)F)c2)C1 [Example 55, 1,5-anhydro-3-{[(2R,3aR,6aR)-3a-({(1S,4S)-5-[3,5-bis(trifluoromethyl)phenyl]-2,5-diazabicyclo[2.2.1]hept-2-yl}carbonyl)octahydropentalen-2-yl](methyl)amino}-2,3-dideoxy-4-O-methyl-D-erythro-pentitol] | 175 | 1410 | 346 |  |  | 
O=C(N1C[C@@H]2C[C@H]1CN2c1cc(C(F)(F)F)ccn1)[C@@]12CCC[C@@H]1C[C@@H](N1CCOCC1)C2 [Example 59, [(2R,3aR,6aR)-2-(morpholin-4-yl)hexahydropentalen-3a(1H)-yl]{(1S,4S)-5-[4-(trifluoromethyl)pyridin-2-yl]-2,5-diazabicyclo[2.2.1]hept-2-yl}methanone] | 533 |  | 204 |  |  | 830
C[C@H]1COCC[C@H]1N[C@@H]1C[C@H]2CCC[C@@]2(C(=O)N2C[C@@H]3C[C@H]2CN3c2cc(C(F)(F)F)ccn2)C1 [Example 62, [(2R,3aR,6aR)-2-{[(3R,4R)-3-methyltetrahydro-2H-pyran-4-yl]amino}hexahydropentalen-3a(1H)-yl]{(1S,4S)-5-[4-(trifluoromethyl)pyridin-2-yl]-2,5-diazabicyclo[2.2.1]hept-2-yl}methanone] | 55 | 445 | 109 |  |  | 
